Laboratory results taken from publication PMC3161871, “Heteroarylketones inhibit astroglial interleukin-6 expression via a STAT3/NF-κB signaling pathway” (Journal of Neuroinflammation, 2011).
Values belong to the molecule of their own block, whether it stands above or below them.

Experiments:
[1] = test system: OSM-stimulated IL-6 secretion from U343 cells; test: OSM-induced IL-6 release from U343 glioma cells (IL-6 ELISA of conditioned medium); type: cell-based, human
Protocol: (§1) The human glioma cell line U343 [34] was maintained in DMEM containing 10% fetal bovine serum and 60 μg/ml gentamycin (Invitrogen, Darmstadt, Germany) at 37°C in a 10% CO2 atmosphere.
(§2) Measurements of IL-6 in conditioned medium and murine plasma samples were done by means of human- or murine-specific IL-6 Cytoset kits (Invitrogen, Darmstadt, Germany) according to manufacturer's protocols.
Using the characterized cell culture model of OSM-induced IL-6 expression, our in-house compound libraries were screened for potent IL-6 expression inhibitors. Human U343 glioma cells were treated with 100 ng/ml OSM for 24 h. The analysis by IL-6 ELISA identified a set of structurally related compounds as potent inhibitors of IL-6 secretion (Table 1). […] HAKs with proline in position P1 are known from the literature as inhibitors of prolyl endopeptidase (PREP), a proline-specific serine protease.

[2] = target: T1, human recombinant prolyl endopeptidase (PREP) (Homo sapiens, UniProt P48147); test: PREP enzymatic activity assay (Z-Gly-Pro-pNA, photometric); type: biochemical
T1 construct: made in house
T1 sequence (P48147 1-710): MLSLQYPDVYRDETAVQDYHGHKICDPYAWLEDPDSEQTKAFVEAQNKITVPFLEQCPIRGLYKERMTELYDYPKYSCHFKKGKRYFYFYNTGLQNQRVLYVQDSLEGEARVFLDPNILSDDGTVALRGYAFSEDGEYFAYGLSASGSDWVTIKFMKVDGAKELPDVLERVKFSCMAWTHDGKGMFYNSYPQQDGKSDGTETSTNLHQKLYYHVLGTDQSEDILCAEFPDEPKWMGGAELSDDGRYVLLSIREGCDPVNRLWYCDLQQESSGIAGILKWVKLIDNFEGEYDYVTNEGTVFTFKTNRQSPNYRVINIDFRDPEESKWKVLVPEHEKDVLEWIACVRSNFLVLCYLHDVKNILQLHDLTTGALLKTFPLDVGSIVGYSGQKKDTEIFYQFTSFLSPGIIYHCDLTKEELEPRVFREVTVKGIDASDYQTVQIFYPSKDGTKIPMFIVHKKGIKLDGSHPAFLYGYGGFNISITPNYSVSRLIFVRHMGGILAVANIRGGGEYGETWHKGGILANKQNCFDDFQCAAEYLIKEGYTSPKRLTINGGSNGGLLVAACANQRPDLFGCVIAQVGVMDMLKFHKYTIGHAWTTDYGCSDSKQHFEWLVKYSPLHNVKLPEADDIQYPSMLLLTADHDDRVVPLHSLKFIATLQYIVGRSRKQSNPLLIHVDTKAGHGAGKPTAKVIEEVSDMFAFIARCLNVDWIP
Protocol: The activity of human recombinant prolyl endopeptidase (PREP) was determined photometrically using the substrate Z-Gly-Pro-pNA (Bachem, Weil am Rhein, Germany) usually at a concentration of 150 μM. As assay buffer 50 mM HEPES buffer pH 7.6, containing 200 mM NaCl, 1 mM EDTA, and 1 mM dithiothreitol was used. Release of pNA was monitored continuously at 405 nm for 15 min at 30°C in a 96-well plate reader (Spectrafluor, Tecan, Crailsheim, Germany). PREP activity was calculated from the slope of the time product curve with the help of a pNA standard. For determination of Ki values three different substrate concentrations (62.5 μM; 125 μM and 250 μM) and seven different inhibitor concentrations were analyzed. Substrate concentrations were selected to be at the Km value of Z-Gly-Pro-pNA (125 μM) as well as half and twice the Km. Data were fitted by non-linear regression to the competitive inhibitor equation (Graphit 5.0, Erithacus software).

[3] = test system: STAT3 phosphorylation at serine 727 (pSTAT3^S727) in U343 cells; test: OSM-induced STAT3 / Erk1 phosphorylation in U343 cells (western blot, immunocytochemistry); type: cell-based, human; conditions: OSM 100 ng/ml, 20 μM compound, 6 h
Protocol: Human U343 cells were lysed with cell lysis buffer (Invitrogen, Darmstadt, Germany) supplemented with 0.2 mg/ml sodium orthovanadate (Sigma, Taufkirchen, Germany), protease inhibitor mix complete mini (Roche, Mannheim, Germany) and 1 mM AEBSF (Sigma, Taufkirchen, Germany) for 30 min on ice. Lysates were centrifuged for 15 min at 15,000 × g and 4°C. Protein content in supernatants was quantified by Bradford assay (Sigma, Taufkirchen, Germany) according to the manufacturer's protocol and stored at -20°C.
Western blotting was performed with 30 μg protein of whole-cell extracts, mixed with 4 x SDS sample loading buffer (Invitrogen, Darmstadt, Germany) and denatured for 10 min at 85°C. […]
Human U343 cells (1 × 10^5 cells/well) were grown on cover slips in 24-well plates (Greiner, Frickenhausen, Germany) for 24 h. […] Finally, cover slips were mounted on microscope slides and approximately 250 cells/sample were evaluated densitometrically by fluorescence microscopy (Zeiss, Jena, Germany) and MetaMorph Image Analysis Software (Universal Imaging Corporation, USA). […]
Figure 7 Effect of selected HAK compounds on OSM-induced STAT3 phosphorylation at serine 727 in U343 cells. […] For western blot analysis (A) 0.25 × 10^6 cells co-treated for 6 h with OSM (100 ng/ml) and selected HAK compounds (20 μM) were extracted and analyzed as described in experimental procedures. […]

[4] = test system: OSM-induced IL-6 mRNA expression; parameters: method as in PMID 10899931; conditions: cited from earlier work
[5] = test system: IL-6 mRNA expression in U343 cells; test: OSM-induced IL-6 mRNA expression in U343 cells (qRT-PCR time course); type: cell-based, human; conditions: 100 ng/ml OSM
Protocol: as §1
Total RNA of cultured cells and homogenized mouse brain tissue samples was isolated using RNA isolation kit "NucleoSpin RNA II" from Macherey and Nagel. RNA quantity was measured by spectrophotometrical quantification (NanoDrop 2000, Peqlab, Erlangen, Germany). Total RNA (0.5 μg) was transcribed to cDNA using Superscript III and oligo-dT primer (Invitrogen, Darmstadt, Germany). Quantitative real-time PCR was performed with QuantiFast SYBR Green PCR Master mix (Qiagen, Hilden, Germany) using Rotorgene 3000 system (Corbett, Sydney, Australia). Gene expression was normalized to the expression of three reference genes glyceraldehyde 3-phosphate dehydrogenase (GAPDH), glucose-6-phosphate dehydrogenase (G6PDH) and hypoxanthine-guanine phosphoribosyltransferase (HPRT). Primers for PREP (5'-[…]-3'; 5'- […]-3') and IL-6 (5'-AAAGGACGTCACATTGCA-3'; 5'-[…]-3') were designed using the Primer3 Software (http://frodo.wi.mit.edu/). Data were analyzed by Rotorgene 3000 Software version 6.0 by comparative quantitation. The appropriate size of PCR products was confirmed by gel-electrophoresis stained with ethidium bromide.
To analyze the time-course of OSM-induced IL-6 expression, U343 cells were incubated with OSM for different periods of time as indicated in figure 1B. Amounts of IL-6 mRNA and protein were subsequently quantified by qRT-PCR and by ELISA, respectively. […] Significant induction of IL-6 protein was detected in the conditioned medium as early as 3 h post stimulation and reaching a maximum at 24 h.
To reveal whether bioactivity of HAK compounds is based on suppression of IL-6 protein biosynthesis or on interference with IL-6 mRNA expression OSM-treated U343 cells were incubated with 20 μM of compound HAK-2 for different periods of time. […] Therefore, it is very likely that the relevant molecular target of HAK compounds is involved in the OSM-induced signal transduction process not earlier than 6 h after onset of the stimulation.
Figure 4 Time course of OSM-induced IL-6 mRNA expression in U343 cells treated with compound HAK-2. […] U343 cells were stimulated with 100 ng/ml OSM and treated with 0.1% DMSO as solvent control (solid line, black triangle) or 20 μM HAK-2 (dashed line, white triangle). Samples were harvested at time points indicated to extract total RNA. IL-6 mRNA expression was analyzed by qRT-PCR. All data points are presented as mean ± SD, and were obtained from experiments carried out in quadruplicate. Statistical analysis were performed between control and HAK-2 samples from same time point. ns, not significant; ***p < 0.001.

[6] = test system: IL-6 release from U343 cells; test: Dose-dependent stimulation of IL-6 release by OSM in U343 cells (ELISA); type: cell-based, human; conditions: U343 cells treated 24 h with OSM, ELISA of conditioned medium
Protocol: as §1, §2
The dose- and time-dependent stimulation of IL-6 expression by OSM in U343 cells is characterized in figure 1. To analyze dose dependence of IL-6 release, U343 cells were treated for 24 hours with various concentrations of OSM followed by measurement of IL-6 protein concentrations in the conditioned medium by a specific ELISA. […] Therefore, all further investigations were performed with 100 ng/ml OSM. The highest dose of 200 ng/ml OSM led to 30-fold increase of IL-6 accumulation in the conditioned media in comparison to vehicle-treated cells.
Figure 1 OSM induces dose- and time-dependent IL-6 expression in human U343 glioma cells. OSM treatment leads to dose-dependent IL-6 release (A). U343 cells were stimulated with different concentrations of OSM as indicated. After 24 hours the conditioned medium was analyzed by IL-6-specific ELISA. […] IL-6 mRNA expression was analyzed by qRT-PCR (dotted line, black triangles) and IL-6 protein release by ELISA (solid line, black squares). […]

PREP inhibition (in words) [2]: potent PREP inhibitor
Ki ([2]; recombinant PREP, Z-Gly-Pro-pNA 62.5/125/250 μM, pH 7.6, 30°C, competitive fit): 3.2 nM
Molecule: N=C(N)NCCC[C@H](NC(=O)OCc1ccccc1)C(=O)N1CCC[C@H]1C(=O)c1nc2ccccc2s1 [HAK-8, Z-Arg-Pro-BTh]
Remaining IL-6 expression [% of control] ([1]; 100 ng/ml OSM, 24 h, IL-6 release of vehicle-treated cells set to 100% (n = 2), mean ± SD): 96.8 ± 10.69 % of control
Effect on OSM-induced IL-6 secretion (in words) ([1]; OSM-stimulated): does not reduce
Effect on pSTAT3^S727 phosphorylation (western blot) [3]: significantly lower effect
Suppression of OSM-mediated phosphorylation of pSTAT3^S727 (immunocytochemistry, densitometry) [3]: did not

Molecule: COc1ccc(C[C@H](N)C(=O)N[C@H]2[C@@H](O)[C@H](n3cnc4c(N(C)C)ncnc43)O[C@@H]2CO)cc1 [puromycin]
Effect on first OSM-induced IL-6 mRNA peak [4]: no effect
Effect on second OSM-induced IL-6 expression peak [4]: completely abrogated

EC50 of IL-6 release [6]: 0.0705 ± 0.02268 µg/mL
Molecule: Oncostatin M [OSM, reference compound]
IL-6 mRNA induction, first peak ([5]; 1 h post stimulation): 6.5 fold
IL-6 mRNA induction, second peak ([5]; 16 h post stimulation): 5.5 fold
